Assay results taken from patent US20090105301A1, “9A-SUBSTITUTED AZALIDES FOR THE TREATMENT OF MALARIA” (priority 2006, published 2009).
In brackets after ≈: the same amount, converted by molar mass.

Key:
[1] = test system: Plasmodium falciparum strain 3D7A; assay: In vitro screening protocol II, [3H] hypoxanthine incorporation IC50 assay, 3D7A; format: cell-based; conditions: P. falciparum 3D7A; for IC50: Plasmodium falciparum
Description: (§1) The protocol described here is a modification of the in vitro screening protocol I and the details of the methodology are given below.
(§2) Plasmodium falciparum strains 3D7A and W2.
(§3) The culture medium comprised RPMI 1640 with 25 mM HEPES, sodium bicarbonate and glutamine (GIBCO™ cat. ref.: 52400), supplemented with 10% of pooled human sera AB (Bioreclamation HMSRM-AB)) and HT supplement (0.15 mM hypoxanthine and 24 μM thymidine), (GIBCO™ cat. ref.: 41065). Human sera were decomplemented 30 min. at 56° C., aliquoted and stored frozen at −20° C. until use in this culture medium.
(§4) This culture medium (“complete medium”) was usually prepared fresh just before use and pre-warmed to 37° C.
(§5) Red blood cells AB− stock suspensions were prepared from whole blood bags coming from incomplete blood donation, provided by the Spanish Red Cross (<25 days after sampling). This “whole blood” was aliquoted and stored at 4° C.
(§6) To prepare red blood cells for the assay, the whole blood was centrifuged and washed 3 times with RPMI without serum. The upper phase, containing white blood cells was removed. The washed red blood cells were kept as a 50% suspension in complete medium. The prepared cells were stored at 4° C. and were employed in the assay at any time up to 4 days after preparation.
(§7) Test compounds were dissolved at 2 mg/ml in 100% DMSO on the day of the assay. If necessary, complete dissolution was achieved by gentle heating (the mixture was heated at a temperature <37° C.) and sonication (sonication bath).
(§8) For IC50 determinations, 10 serial 2-fold dilutions were prepared in complete medium in the presence of a constant amount of DMSO. Any obvious signs of insolubility of the stock solutions in 100% DMSO or precipitation when these solutions were diluted in assay media, were recorded.
(§9) Plasmodium falciparum strains were maintained in complete medium at 5% of hematocrit in continuous culture using a method adapted from Trager W. and Jensen J. B. (Human malaria parasites in continuous culture Science 193 (4254) (1976) 673-675) and Trager W. (Cultivation of malaria parasites Methods Cell Biol. 45 (1994) 7-26).
(§10) The parasitemia was calculated by counting the percentage of parasitized erythrocytes by optical microscopy. Thin films of blood were made every day from each culture flask, fixed with methanol and stained for 10 min. in Giemsa (Merck, cat ref.: 1.09204) at 10% in buffered water pH 7.2. The glass slides were observed and counted with an optical microscope (Nikon, Eclipse E200) equipped with a 100× immersion oil objective.
(§11) The culture was maintained at 5% of hematocrit, with a daily change of medium and was diluted when parasitemia had reached about 5%.
(§12) [^3H] Hypoxanthine incorporation assay was conducted using a method adapted from Desjardins R. E. et al. (Quantitative assessment of antimalarial activity in vitro by a semiautomated microdilution technique. Antimicrob. Agents Chemother., 16 (6) (1979) 710-718). The assays were performed in 96 wells flat bottom microplates.
(§13) 1. Serial dilutions of each test compound (25 μl of a 5× solution/well) were deposited in one row of assay microtiter plate. Compounds of this invention were tested in this assay. Chloroquine and Azithromycin were used as control compounds for each assay.
(§14) 2. […] 100 μl of the resulting suspension was distributed into each well of columns 1-11 of assay microtiter plate leading to a final volume of 125 μl per well, at 1.2% of hematocrit and 0.4% of parasitemia/well.
(§15) 3. In each plate, 2 columns were reserved for control wells: • Column 11 (comprising wells A11-H11): Positive control wells: Untreated PRBCs to compare with cultures treated with test compounds. • Column 12 (comprising wells A12-H12): • Background value wells: Uninfected RBCs—blank control to obtain the background reading from RBCs without parasites (at 1.2% of hematocrite value).
(§16) 4. The plates were incubated at 37° C. under low oxygen atmosphere. […]

[2] = test system: Plasmodium falciparum strain W2; assay: In vitro screening protocol II, [3H] hypoxanthine incorporation IC50 assay, W2; format: cell-based; conditions: P. falciparum W2; for IC50: Plasmodium falciparum
Description: as §1, §2, §3, §4, §5, §6, §7, §8, §9, §10, §11, §12, §13, §14, §15, §16

Compound | IC50 3D7A [1] | IC50 W2 [2] | IC50 [1] | IC50 [2]
CCC1OC(=O)C(C)C(OC2CC(C)(OC)C(O)C(C)O2)C(C)C(OC2OC(C)CC(N(C)C)C2O)C(C)(O)CC(C)CN(CCCNC(=O)Cc2cccc(Cl)c2)C(C)C(O)C1(C)O.O=CO (centres unmarked) [Example 62, 9a-(3-{[(3-Chlorophenyl)acetyl]amino}propyl)-9-deoxo-9-dihydro-9a-aza-9a-homoerythromycin A Formiate Salt] | C (200 < X ≦ 1000) | C (200 < X ≦ 1000) |  | 
CCC1OC(=O)C(C)C(OC2CC(C)(OC)C(O)C(C)O2)C(C)C(OC2OC(C)CC(N(C)C)C2O)C(C)(O)CC(C)CN(CCCNC(=O)Cc2ccccc2F)C(C)C(O)C1(C)O.O=CO (centres unmarked) [Example 69, 9a-(3-{[(2-Fluorophenyl)acetyl]amino}propyl)-9-deoxo-9-dihydro-9a-aza-9a-homoerythromycin A Formiate Salt] | G (3500 < X ≦ 5000) | C (200 < X ≦ 1000) |  | 
CCC1OC(=O)C(C)C(OC2CC(C)(OC)C(O)C(C)O2)C(C)C(OC2OC(C)CC(N(C)C)C2O)C(C)(O)CC(C)CN(CCCNC(=O)Cc2ccc(F)cc2)C(C)C(O)C1(C)O.O=CO (centres unmarked) [Example 68, 9a-(3-{[(4-Fluorophenyl)acetyl]amino}propyl)-9-deoxo-9-dihydro-9a-aza-9a-homoerythromycin A Formiate Salt] | F (2800 < X ≦ 3500) | C (200 < X ≦ 1000) |  | 
CC[C@H]1OC(=O)[C@H](C)[C@@H](O[C@H]2C[C@@](C)(OC)[C@@H](O)[C@H](C)O2)[C@H](C)[C@@H](O[C@@H]2O[C@H](C)C[C@H](N(C)C)[C@H]2O)[C@](C)(O)C[C@@H](C)CN(CCCNCc2ccc3ccccc3c2)[C@H](C)[C@@H](O)[C@]1(C)O [Example 54, 9a-{3-[(Naphtalen-2-yl-methyl)amino]propyl}-9-deoxo-9-dihydro-9a-aza-9a-homoerythromycin A] |  |  | 0.1 to 0.2 µg/mL (≈ 0.107 to 0.215 µM) | < 0.1 µg/mL
CC[C@H]1OC(=O)[C@H](C)[C@@H](O[C@H]2C[C@@](C)(OC)[C@@H](O)[C@H](C)O2)[C@H](C)[C@@H](O[C@@H]2O[C@H](C)C[C@H](N(C)C)[C@H]2O)[C@](C)(O)C[C@@H](C)CN(CCCNC(=O)Cc2ccccc2[N+](=O)[O-])[C@H](C)[C@@H](O)[C@]1(C)O.O=CO [Example 67, 9a-(3-{[(2-Nitrophenyl)acetyl]amino}propyl)-9-deoxo-9-dihydro-9a-aza-9a-homoerythromycin A Formiate Salt] | H (5000 < X ≦ 10000) | D (1000 < X ≦ 2500) |  | 
CC[C@H]1OC(=O)[C@H](C)[C@@H](O[C@H]2C[C@@](C)(OC)[C@@H](O)[C@H](C)O2)[C@H](C)[C@@H](O[C@@H]2O[C@H](C)C[C@H](N(C)C)[C@H]2O)[C@](C)(O)C[C@@H](C)CN(CCCNC(=O)/C=C/c2cnc3ccccc3c2)[C@H](C)[C@@H](O)[C@]1(C)O [Example 76, 9a-(3-{[(2E)-3-(Quinolin-3-yl)-2-propenoyl]amino}propyl)-9-deoxo-9-dihydro-9a-aza-9a-homoerythromycin A] |  |  | 0.2 to 1 µg/mL (≈ 0.205 to 1.03 µM) | 0.2 to 1 µg/mL (≈ 0.205 to 1.03 µM)
CC(=O)O.CC(=O)O.CCC1OC(=O)C(C)C(OC2CC(C)(OC)C(O)C(C)O2)C(C)C(OC2OC(C)CC(N(C)C)C2O)C(C)(O)CC(C)CN(CCCNCc2ccnc3ccccc23)C(C)C(O)C1(C)O (centres unmarked) [Example 78, 9a-{3-[(Quinolin-4-yl-methyl)amino]propyl}-9-deoxo-9-dihydro-9a-aza-9a-homoerythromycin A Diacetate Salt] | C (200 < X ≦ 1000) | A (X ≦ 100) |  | 
CCC1OC(=O)C(C)C(OC2CC(C)(OC)C(O)C(C)O2)C(C)C(OC2OC(C)CC(N(C)C)C2O)C(C)(O)CC(C)CN(CCCNC(=O)Cc2ccc(OC)cc2)C(C)C(O)C1(C)O.O=CO (centres unmarked) [Example 58, 9a-[3-({[4-(Methyloxy)phenyl]acetyl}amino)propyl]-9-deoxo-9-dihydro-9a-aza-9a-homoerythromycin A Formiate Salt] | G (3500 < X ≦ 5000) | C (200 < X ≦ 1000) |  | 
CCC1OC(=O)C(C)C(OC2CC(C)(OC)C(O)C(C)O2)C(C)C(OC2OC(C)CC(N(C)C)C2O)C(C)(O)CC(C)CN(CCCNC(=O)Cc2ccc(Cl)cc2)C(C)C(O)C1(C)O.O=CO (centres unmarked) [Example 63, 9a-(3-{[(4-Chlorophenyl)acetyl]amino}propyl)-9-deoxo-9-dihydro-9a-aza-9a-homoerythromycin A Formiate Salt] | C (200 < X ≦ 1000) | C (200 < X ≦ 1000) |  | 
CC(=O)O.CC(=O)O.CC(=O)O.CCC1OC(=O)C(C)C(O)C(C)C(OC2OC(C)CC(N(C)C)C2O)C(C)(O)CC(C)CN(CCCNc2ccnc3cc(Cl)ccc23)C(C)C(O)C1(C)O (centres unmarked) [Example 79] | A (X ≦ 100) | A (X ≦ 100) |  | 
CC[C@H]1OC(=O)[C@H](C)[C@@H](O[C@H]2C[C@@](C)(OC)[C@@H](O)[C@H](C)O2)[C@H](C)[C@@H](O[C@@H]2O[C@H](C)C[C@H](N(C)C)[C@H]2O)[C@](C)(O)C[C@@H](C)CN(CCCNC(=O)C(Cc2ccc(F)cc2)NC(C)=O)[C@H](C)[C@@H](O)[C@]1(C)O.O=CO (some centres unmarked) [Example 60, 9a-{3-[(N-Acetyl-4-fluorophenylalanyl)amino]propyl}-9-deoxo-9-dihydro-9a-aza-9a-homoerythromycin A Formiate Salt] | H (5000 < X ≦ 10000) | D (1000 < X ≦ 2500) |  | 
CCC1OC(=O)C(C)C(OC2CC(C)(OC)C(O)C(C)O2)C(C)C(OC2OC(C)CC(N(C)C)C2O)C(C)(O)CC(C)CN(CCCNC(=O)c2cc(F)c(F)c(OC)c2F)C(C)C(O)C1(C)O.O=CO (centres unmarked) [Example 59, 9a-[3-({[2,4,5-Trifluoro-3-(methyloxy)phenyl]carbonyl}amino)propyl]-9-deoxo-9-dihydro-9a-aza-9a-homoerythromycin A Formiate Salt] | D (1000 < X ≦ 2500) | B (100 < X ≦ 200) |  | 
CC[C@H]1OC(=O)[C@H](C)[C@@H](O[C@H]2C[C@@](C)(OC)[C@@H](O)[C@H](C)O2)[C@H](C)[C@@H](O[C@@H]2O[C@H](C)C[C@H](N(C)C)[C@H]2O)[C@](C)(O)C[C@@H](C)CN(CCCNC(=O)CCc2ccc(F)cc2)[C@H](C)[C@@H](O)[C@]1(C)O.O=CO [Example 70, 9a-(3-{[3-(4-Fluorophenyl)propanoyl]amino}propyl)-9-deoxo-9-dihydro-9a-aza-9a-homoerythromycin A Formiate Salt] | D (1000 < X ≦ 2500) | C (200 < X ≦ 1000) |  | 
9a-(3-{[(4-Nitrophenyl)acetyl]amino}propyl)-9-deoxo-9-dihydro-9a-aza-9a-homoerythromycin A Formiate Salt [Example 64] | D (1000 < X ≦ 2500) | C (200 < X ≦ 1000) |  | 
CCC1OC(=O)C(C)C(OC2CC(C)(OC)C(O)C(C)O2)C(C)C(OC2OC(C)CC(N(C)C)C2O)C(C)(O)CC(C)CN(CCCNC(=O)CCC(=O)c2ccccc2)C(C)C(O)C1(C)O.O=CO (centres unmarked) [Example 65, 9a-{3-[(4-Oxo-4-phenylbutanoyl)amino]propyl}-9-deoxo-9-dihydro-9a-aza-9a-homoerythromycin A Formiate Salt] | G (3500 < X ≦ 5000) | D (1000 < X ≦ 2500) |  | 
CC(=O)O.CC(=O)O.CC[C@H]1OC(=O)[C@H](C)[C@@H](O[C@H]2C[C@@](C)(OC)[C@@H](O)[C@H](C)O2)[C@H](C)[C@@H](O[C@@H]2O[C@H](C)C[C@H](N(C)C)[C@H]2O)[C@](C)(O)C[C@@H](C)CN(CCCNC(=O)CCc2ccccc2)[C@H](C)[C@@H](O)[C@]1(C)O [Example 47, 9a-{3-[(3-Phenylpropanoyl)amino]propyl}-9a-aza-9-deoxo-9-dihydro-9a-homoerythromycin A Diacetate Salt] | D (1000 < X ≦ 2500) | D (1000 < X ≦ 2500) |  | 
